Measured values from patent publication US7081460B2, “Quinazoline and quinazoline-like compounds for the treatment of integrin-mediated disorders” (Ortho-McNeil Pharmaceutical, Inc., priority 2001, dated 2006).
Structures can show the parent of a compound that is named as a salt.

Tests used:
GPIIb/IIIa = GPIIb/IIIa (Homo sapiens, UniProt P05106+P08514); assay: In vitro solid phase purified glycoprotein IIb/IIIa binding assay (biotinylated fibrinogen); settings: RGD-affinity purified GPIIb/IIIa, biotinylated fibrinogen; read-out: GPIIb/IIIa Binding IC50
Procedure, shortened: (§1)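 αvβ3 (1 μg/ml) immobilised in Tris buffer with Ca2+/Mg2+/Mn2+, compounds added 5 min before 5 nM vitronectin, 3 h at 37 °C; bound vitronectin detected by anti-vitronectin antibody/peroxidase ELISA at 490 nm. GPIIb/IIIa coated overnight at 4 °C, biotinylated fibrinogen with compounds 2–4 h RT in modified Tyrodes buffer, avidin-HRP/o-phenylenediamine read at 490 nm.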

Human αvβ3 = biological target: T1, Human αvβ3 (Homo sapiens, UniProt P05106+P06756); assay: In vitro solid phase purified αvβ3 binding assay (vitronectin/αvβ3); settings: isolated human αvβ3, 5 nM vitronectin; read-out: αvβ3 Binding IC50
T1 construct: purchased Chemicon International Inc., Temecula, Calif
Procedure, shortened: as §1

Chain of GPIIb/IIIa (P08514 32-887 limits assumed): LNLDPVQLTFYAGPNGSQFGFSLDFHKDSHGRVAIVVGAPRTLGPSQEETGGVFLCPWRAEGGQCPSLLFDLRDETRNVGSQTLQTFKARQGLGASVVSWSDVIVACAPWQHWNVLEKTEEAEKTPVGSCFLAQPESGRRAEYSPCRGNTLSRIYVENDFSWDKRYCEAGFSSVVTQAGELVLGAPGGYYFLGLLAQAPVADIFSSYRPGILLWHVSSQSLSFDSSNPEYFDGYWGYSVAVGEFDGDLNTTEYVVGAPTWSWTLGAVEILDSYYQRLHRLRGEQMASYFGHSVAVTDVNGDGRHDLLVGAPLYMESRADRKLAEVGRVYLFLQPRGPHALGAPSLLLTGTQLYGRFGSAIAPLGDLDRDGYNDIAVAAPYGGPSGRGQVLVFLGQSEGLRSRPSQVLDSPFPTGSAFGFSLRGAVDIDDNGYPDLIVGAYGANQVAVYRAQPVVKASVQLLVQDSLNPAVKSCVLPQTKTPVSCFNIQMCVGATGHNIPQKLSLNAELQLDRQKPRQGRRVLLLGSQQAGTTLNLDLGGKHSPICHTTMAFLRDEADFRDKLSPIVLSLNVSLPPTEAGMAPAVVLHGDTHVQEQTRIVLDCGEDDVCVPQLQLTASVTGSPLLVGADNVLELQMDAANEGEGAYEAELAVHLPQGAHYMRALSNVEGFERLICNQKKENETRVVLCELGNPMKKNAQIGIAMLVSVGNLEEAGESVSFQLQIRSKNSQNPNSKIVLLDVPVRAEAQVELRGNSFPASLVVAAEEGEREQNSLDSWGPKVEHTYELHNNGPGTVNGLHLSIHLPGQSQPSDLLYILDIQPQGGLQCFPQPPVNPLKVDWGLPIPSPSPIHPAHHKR
Chain of GPIIb/IIIa (P08514 891-1039 partner limits assumed): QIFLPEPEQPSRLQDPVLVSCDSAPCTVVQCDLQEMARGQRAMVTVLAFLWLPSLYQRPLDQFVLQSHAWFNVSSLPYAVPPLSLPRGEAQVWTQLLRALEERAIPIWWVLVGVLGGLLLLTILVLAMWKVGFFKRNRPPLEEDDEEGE
Chain of GPIIb/IIIa (P05106 27-788): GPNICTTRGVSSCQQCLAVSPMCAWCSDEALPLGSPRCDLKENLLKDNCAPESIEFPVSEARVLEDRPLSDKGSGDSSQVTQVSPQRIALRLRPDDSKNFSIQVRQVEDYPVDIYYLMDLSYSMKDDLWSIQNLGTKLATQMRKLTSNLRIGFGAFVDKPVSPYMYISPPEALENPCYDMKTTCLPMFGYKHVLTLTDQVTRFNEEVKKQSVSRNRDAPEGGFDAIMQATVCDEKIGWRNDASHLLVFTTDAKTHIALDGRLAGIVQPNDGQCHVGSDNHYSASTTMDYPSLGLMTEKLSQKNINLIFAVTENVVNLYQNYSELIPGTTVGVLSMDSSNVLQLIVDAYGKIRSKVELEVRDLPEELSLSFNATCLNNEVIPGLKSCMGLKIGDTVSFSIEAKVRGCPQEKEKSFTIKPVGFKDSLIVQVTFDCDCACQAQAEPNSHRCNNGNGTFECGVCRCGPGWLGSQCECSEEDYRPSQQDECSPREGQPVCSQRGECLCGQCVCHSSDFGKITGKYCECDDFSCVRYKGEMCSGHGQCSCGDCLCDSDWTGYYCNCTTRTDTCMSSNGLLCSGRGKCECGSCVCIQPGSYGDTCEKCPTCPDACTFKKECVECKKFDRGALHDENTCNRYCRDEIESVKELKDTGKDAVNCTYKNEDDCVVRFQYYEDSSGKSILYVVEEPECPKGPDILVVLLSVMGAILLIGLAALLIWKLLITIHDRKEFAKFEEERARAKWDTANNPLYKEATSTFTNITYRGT
T1 sequence (P06756 31-889 limits assumed): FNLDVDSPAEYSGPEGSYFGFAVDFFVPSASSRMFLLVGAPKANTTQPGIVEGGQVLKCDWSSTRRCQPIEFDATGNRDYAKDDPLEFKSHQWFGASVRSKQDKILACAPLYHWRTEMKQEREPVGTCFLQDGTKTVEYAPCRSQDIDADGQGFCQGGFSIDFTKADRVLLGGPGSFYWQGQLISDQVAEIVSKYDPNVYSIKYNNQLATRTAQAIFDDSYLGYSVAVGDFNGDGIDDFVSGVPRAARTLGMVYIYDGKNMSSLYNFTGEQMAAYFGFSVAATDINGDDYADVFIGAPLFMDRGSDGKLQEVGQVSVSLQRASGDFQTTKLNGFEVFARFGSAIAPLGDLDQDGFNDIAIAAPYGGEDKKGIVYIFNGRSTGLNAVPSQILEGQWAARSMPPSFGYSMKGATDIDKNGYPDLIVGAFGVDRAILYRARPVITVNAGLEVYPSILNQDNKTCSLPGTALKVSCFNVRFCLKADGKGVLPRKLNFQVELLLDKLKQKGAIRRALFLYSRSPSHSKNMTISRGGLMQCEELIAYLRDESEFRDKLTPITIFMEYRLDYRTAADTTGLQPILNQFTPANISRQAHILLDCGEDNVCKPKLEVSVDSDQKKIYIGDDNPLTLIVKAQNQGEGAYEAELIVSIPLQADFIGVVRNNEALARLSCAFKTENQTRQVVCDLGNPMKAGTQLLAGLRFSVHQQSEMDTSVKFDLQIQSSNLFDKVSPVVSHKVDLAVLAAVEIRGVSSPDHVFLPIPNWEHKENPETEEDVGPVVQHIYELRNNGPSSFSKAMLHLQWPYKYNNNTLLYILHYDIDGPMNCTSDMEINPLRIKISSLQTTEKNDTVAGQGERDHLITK
T1 sequence (P06756 891-1048 partner limits assumed): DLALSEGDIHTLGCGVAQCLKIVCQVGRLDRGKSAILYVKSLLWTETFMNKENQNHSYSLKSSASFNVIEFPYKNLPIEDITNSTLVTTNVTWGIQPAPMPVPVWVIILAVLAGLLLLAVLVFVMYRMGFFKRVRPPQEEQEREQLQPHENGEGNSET
T1 sequence (P05106 27-788): as the sequence (P05106 27-788) above

Compound: Cc1c(C)c(C)c(S(=O)(=O)N[C@@H](Cc2nc3ccc(CCCNc4ccccn4)cc3c(=O)[nH]2)C(=O)O)c(C)c1C (as salt: HCl) [Compound 11, (αS)-3,4-dihydro-4-oxo-α-[[(2,3,4,5,6-pentamethylphenyl)sulfonyl]amino]-6-[3-(2-pyridinylamino)propyl]-2-quinazolinepropanoic Acid]
- melting point: 218 to 221 °C

Compound: Cc1c(C)c(C)c(S(=O)(=O)N[C@@H](Cc2nc3ccc(/C=C/CNC4=NCCN4)cc3c(=O)[nH]2)C(=O)O)c(C)c1C (as salt: TFA) [Compound 1, 6-[(1E)-3-[(4,5-dihydro-1H-imidazol-2-yl)amino]-1-propenyl]-(αS)-3,4-dihydro-4-oxo-α-[[(2,3,4,5,6-pentamethylphenyl)sulfonyl]amino]-2-quinazolinepropanoic Acid]
- melting point: 131 to 135 °C

Compound: Cc1c(C)c(C)c(S(=O)(=O)N[C@@H](Cc2nc3ccc(/C=C/CNc4ccccn4)cc3c(=O)[nH]2)C(=O)O)c(C)c1C (as salt: TFA) [Compound 10, (αS)-3,4-dihydro-4-oxo-α-[[(2,3,4,5,6-pentamethylphenyl)sulfonyl]amino]-6-[(1E)-3-(2-pyridinylamino)-1-propenyl]-2-quinazolinepropanoic Acid]
- melting point: 148 to 151 °C

Compound: Cc1ccc(NC/C=C/c2ccc3nc(C[C@H](NS(=O)(=O)c4c(C)c(C)c(C)c(C)c4C)C(=O)O)[nH]c(=O)c3c2)nc1 [Compound 43, (αS)-3,4-dihydro-6-[(1E)-3-[(5-methyl-2-pyridinyl)amino]-1-propenyl]-4-oxo-α-[[(2,3,4,5,6-pentamethylphenyl)sulfonyl]amino]-2-quinazolinepropanoic acid]
- IC50 (GPIIb/IIIa): 880 nM
- IC50 (Human αvβ3): 22 nM

Compound: Cc1coc(NC/C=C/c2ccc3nc(C[C@H](NS(=O)(=O)c4c(C)c(C)c(C)c(C)c4C)C(=O)O)[nH]c(=O)c3c2)n1 [Compound 81, (αS)-3,4-dihydro-6-[(1E)-3-[(4-methyl-2-oxazolyl)amino]-1-propenyl]-4-oxo-α-[[(2,3,4,5,6-pentamethylphenyl)sulfonyl]amino]-2-quinazolinepropanoic acid]
- IC50 (GPIIb/IIIa): 7100 nM
- IC50 (Human αvβ3): > 5000 nM

Compound: O=C(O)[C@H](Cc1nc2ccc(/C=C/CNc3ccccn3)cc2c(=O)[nH]1)NS(=O)(=O)c1cccs1 [Compound 34, (αS)-3,4-dihydro-4-oxo-6-[(1E)-3-(2-pyridinylamino)-1-propenyl]-α-[(2-thienylsulfonyl)amino]-2-quinazolinepropanoic acid]
- IC50 (GPIIb/IIIa): 1600 nM
- IC50 (Human αvβ3): 83 nM

Compound: CCCCS(=O)(=O)N[C@@H](Cc1nc2ccc(/C=C/CNC(=O)NCc3ccccc3)cc2c(=O)[nH]1)C(=O)O [Compound 73, α-[(butylsulfonyl)amino]-(αS)-3,4-dihydro-4-oxo-6-[(1E)-3-[[[(phenylmethyl)amino]carbonyl]amino]-1-propenyl]-2-quinazolinepropanoic acid]
- IC50 (GPIIb/IIIa): > 50000 nM
- IC50 (Human αvβ3): 2000 nM

Compound: Cc1c(C)c(C)c(S(=O)(=O)N[C@@H](Cc2nc3ccc(/C=C/CNC(=O)NC4CCCCC4)cc3c(=O)[nH]2)C(=O)O)c(C)c1C [Compound 75, 6-[(1E)-3-[[(cyclohexylamino)carbonyl]amino]-1-propenyl]-(αS)-3,4-dihydro-4-oxo-α-[[(2,3,4,5,6-pentamethylphenyl)sulfonyl]amino]-2-quinazolinepropanoic acid]
- IC50 (GPIIb/IIIa): 4900 nM
- IC50 (Human αvβ3): 620 nM

Compound: 6-[(1E)-4-[[(aminoiminomethyl)amino]oxy]-1-butenyl]-(αS)-3,4-dihydro-4-oxo-α-[[(2,3,4,5,6-pentamethylphenyl)sulfonyl]amino]-2-quinazolinepropanoic Acid [Compound 16]
- IC50 (GPIIb/IIIa): 36 nM
- IC50 (Human αvβ3): 268 nM

Compound: Cc1c(C)c(C)c(S(=O)(=O)N[C@@H](Cc2nc3ccc(/C=C/CNC(=N)c4cccnc4)cc3c(=O)[nH]2)C(=O)O)c(C)c1C [Compound 47, (αS)-3,4-dihydro-6-[(1E)-3-[(imino-3-pyridinylmethyl)amino]-1-propenyl]-4-oxo-α-[[(2,3,4,5,6-pentamethylphenyl)sulfonyl]amino]-2-quinazolinepropanoic acid]
- IC50 (GPIIb/IIIa): 96 nM
- IC50 (Human αvβ3): 132 nM

Compound: COc1ccc(S(=O)(=O)N[C@@H](Cc2nc3ccc(/C=C/CNc4ccccn4)cc3c(=O)[nH]2)C(=O)O)cc1OC [Compound 33, α-[[(3,4-dimethoxyphenyl)sulfonyl]amino]-(αS)-3,4-dihydro-4-oxo-6-[(1E)-3-(2-pyridinylamino)-1-propenyl]-2-quinazolinepropanoic acid]
- IC50 (GPIIb/IIIa): 1100 nM
- IC50 (Human αvβ3): 13 nM

Compound: Cc1c(C)c(C)c(S(=O)(=O)N[C@@H](Cc2nc3ccc(/C=C/CNc4nc5ccccc5c(=O)[nH]4)cc3c(=O)[nH]2)C(=O)O)c(C)c1C [Compound 61, 6-[(1E)-3-[(3,4-dihydro-4-oxo-2-quinazolinyl)amino]-1-propenyl]-(αS)-3,4-dihydro-4-oxo-α-[[(2,3,4,5,6-pentamethylphenyl)sulfonyl]amino]-2-quinazolinepropanoic acid]
- IC50 (GPIIb/IIIa): 12000 nM
- IC50 (Human αvβ3): 69 nM
